Columns and labels:
[1] = described ranking of GA isoforms; cited from earlier work
[2] = target: T1, GID1B based sensor (GID1B.5) (Arabidopsis thaliana, UniProt Q9LYC1, V53A); assay: yeast solid media luciferase assay, GID1B based sensor (GID1B.5) with overlapping firefly luciferase fragments; type: cell-based; conditions: GA3 100 μM vs mock (100% ethanol), FIG. 7
T1 construct: a GID1B based sensor with overlapping firefly luciferase fragments (plasmid IR235); expressed in transfected cells; host or cells: Saccharomyces cerevisiae (yeast), plasmid printed as IR235
Protocol: In order to assess the impact of the presence of overlapping parts of firefly luciferase on the GID1B based sensor (GID1B.5) at the split point, a GID1B based sensor with overlapping firefly luciferase fragments (plasmid IR235) was compared in a Y2H assay to a GID1B based sensor without overlapping firefly luciferase fragments (plasmid IR241).
Four representative colonies were selected and plated onto Nylon membranes as described before. After 3 days at 30° C. the membranes were incubated in selective media containing luciferase substrate for 4 hours in dark at room temperature. Each replicate was subsequently transferred to plates containing selective media supplemented with luciferase substrate. […] Luciferase activity was recorded as indicated before.

[3] = target: T2, Arabidopsis thaliana GID1C based sensor (Arabidopsis thaliana, UniProt Q940G6); assay: in planta assay: GA sensor in ga1-3 mutant plants sprayed with GA3, luciferase imaging; type: in vivo; conditions: ga1-3 plants containing the sensor, sprayed with 100 μM GA3 solution vs mock; FIG. 4
T2 construct: expressed in transfected cells; host or cells: Arabidopsis thaliana ga1-3 mutant plants (Ler background), Agrobacterium floral dip, construct IR216 (35S::GID1CLUC in pFK210)
From the text: To validate in planta the results obtained in yeast, the inventors introduced the GA sensors under the control of the constitutive viral promoter 35S into Arabidopsis thaliana plants. The constructs IR208 and IR216 were independently introduced using the floral dip method of Agrobacterium-mediated transformation into the Arabidopsis thaliana Ler-1 (Landsberg erecta) wild-type strain and its isogenic ga1-3 mutant strain (containing a deletion in the gene for the enzyme that catalyzes an early step in the synthesis of GA: Sun et al., Plant Cell, 1992, 4, 119-128). Plants were grown in soil under Basta™ selection and short day conditions (8h light/16h dark).
In this case, the Arabidopsis thaliana GID1C based sensor produced a faster and stronger signal than the Arabidopsis thaliana GID1B based sensor. To ascertain whether the reporter system according to the invention could quantitatively report the presence of endogenous bioactive GA isoforms, the inventors grew the Arabidopsis thaliana Ler-1 wild-type plants containing the Arabidopsis thaliana GID1C based sensor along with Arabidopsis thaliana GA3ox1-GUS and GA3ox2-GUS reporter lines. The GA sensor was active in a pattern that indicated the presence of active forms of GA in emerging leaves and at the base and vasculature of older leaves. […]

[4] = target: T3, GID1C based sensor peptide with co-expression of a DELLA protein (GAI) (Arabidopsis thaliana, UniProt Q940G6); assay: yeast liquid luciferase assay, GID1C based sensor with co-expression of the DELLA protein GAI; type: cell-based; conditions: Saccharomyces cerevisiae, GAI co-expressed; FIG. 6D
T3 construct: expressed in transfected cells; host or cells: Saccharomyces cerevisiae AH109, plasmids IR214 (GID1CLUC-pDest22) and IR236 (GAI in pDEST32)
Protocol: Two representative colonies were selected and plated onto Nylon membranes as described before. After 3 days at 30° C. the membranes were incubated in selective media containing luciferase substrate for 4 hours in dark at room temperature. […] Luciferase activity was recorded as indicated before. For liquid assays, the inventors inoculated one representative colony for each version of the sensor in 5 ml of selective media (YNB, MPBlo, supplemented with CSM Trp^−, Bio 101) containing luciferase substrate and grown under shaking at 28° C. for 18 hours. […] Plates were incubated for 16 hours at 28° C. in a cabinet and luciferase activity was recorded during the entire period of the experiment using a Topcount™ device (Perkin Elmer).
First, the coding sequence of the DELLA protein GAI (At1g14920) was cloned into the yeast plasmid pDEST32 (Invitrogen) yielding the construct IR236. Subsequently, yeast cells were transformed with the plasmids IR206 or IR214 in combination with the empty pDEST32 vector or IR236. Following the same approach than described before in Example 3, we assayed 4 GA isoforms, the same four than in the former assay. The experimental setting was the same than in Example 3 with the difference that the selective media used was deficient in Trp and Leu (YNB, MPBlo, supplemented with CSM Trp^−Leu^−, Bio 101) to select for the presence of both plasmids within the yeast cells. […]

T1 sequence (Q9LYC1 other isoform, or with tags, fused parts or gaps V53A): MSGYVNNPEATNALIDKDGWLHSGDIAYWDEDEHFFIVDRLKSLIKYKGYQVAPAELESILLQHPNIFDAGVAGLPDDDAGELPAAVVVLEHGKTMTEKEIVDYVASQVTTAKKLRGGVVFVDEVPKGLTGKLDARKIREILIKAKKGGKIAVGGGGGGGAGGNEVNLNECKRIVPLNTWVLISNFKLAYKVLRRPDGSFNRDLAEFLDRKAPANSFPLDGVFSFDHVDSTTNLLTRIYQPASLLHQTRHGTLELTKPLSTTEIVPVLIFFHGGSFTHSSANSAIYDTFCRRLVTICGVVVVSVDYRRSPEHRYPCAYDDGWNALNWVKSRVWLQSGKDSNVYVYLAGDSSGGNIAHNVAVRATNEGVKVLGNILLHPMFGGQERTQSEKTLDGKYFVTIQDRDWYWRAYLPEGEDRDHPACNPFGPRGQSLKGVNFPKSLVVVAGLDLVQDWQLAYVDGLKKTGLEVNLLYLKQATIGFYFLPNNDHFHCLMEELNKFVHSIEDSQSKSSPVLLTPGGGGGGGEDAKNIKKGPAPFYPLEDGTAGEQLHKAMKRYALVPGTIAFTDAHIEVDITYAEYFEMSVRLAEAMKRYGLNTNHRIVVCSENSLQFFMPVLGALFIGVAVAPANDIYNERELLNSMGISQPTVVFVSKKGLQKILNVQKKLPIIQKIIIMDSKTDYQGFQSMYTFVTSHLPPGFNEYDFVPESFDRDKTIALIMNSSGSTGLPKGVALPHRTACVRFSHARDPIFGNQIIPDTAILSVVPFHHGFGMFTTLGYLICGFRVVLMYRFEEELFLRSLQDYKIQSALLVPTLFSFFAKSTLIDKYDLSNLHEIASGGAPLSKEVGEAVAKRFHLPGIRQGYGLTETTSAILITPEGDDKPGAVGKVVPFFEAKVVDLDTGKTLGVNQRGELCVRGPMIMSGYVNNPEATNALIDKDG
T3 sequence (Q940G6 with tags, fused parts or gaps): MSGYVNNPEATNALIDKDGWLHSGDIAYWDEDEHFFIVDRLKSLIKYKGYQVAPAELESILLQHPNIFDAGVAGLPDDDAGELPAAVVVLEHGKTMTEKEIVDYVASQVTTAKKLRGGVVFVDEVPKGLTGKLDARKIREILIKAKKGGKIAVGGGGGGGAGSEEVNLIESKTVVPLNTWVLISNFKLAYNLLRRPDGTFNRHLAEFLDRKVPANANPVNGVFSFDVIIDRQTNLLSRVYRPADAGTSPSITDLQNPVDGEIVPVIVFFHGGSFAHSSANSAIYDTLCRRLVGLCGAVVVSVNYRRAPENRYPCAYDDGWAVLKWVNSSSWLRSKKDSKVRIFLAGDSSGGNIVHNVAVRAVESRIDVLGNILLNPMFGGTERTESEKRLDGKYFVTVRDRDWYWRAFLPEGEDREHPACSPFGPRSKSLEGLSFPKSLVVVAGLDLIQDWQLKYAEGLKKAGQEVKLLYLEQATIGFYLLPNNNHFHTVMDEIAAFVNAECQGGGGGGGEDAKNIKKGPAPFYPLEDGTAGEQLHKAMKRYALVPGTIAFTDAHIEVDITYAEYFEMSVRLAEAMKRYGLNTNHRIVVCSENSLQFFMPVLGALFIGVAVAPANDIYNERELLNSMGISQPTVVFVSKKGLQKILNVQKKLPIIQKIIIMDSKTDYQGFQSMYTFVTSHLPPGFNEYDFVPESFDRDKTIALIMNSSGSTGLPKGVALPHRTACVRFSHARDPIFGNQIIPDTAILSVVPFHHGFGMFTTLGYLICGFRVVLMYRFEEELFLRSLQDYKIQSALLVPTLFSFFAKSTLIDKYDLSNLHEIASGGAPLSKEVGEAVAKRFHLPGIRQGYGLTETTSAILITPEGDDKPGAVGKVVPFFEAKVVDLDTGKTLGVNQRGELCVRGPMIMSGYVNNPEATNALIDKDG
T3 sequence (Q9LQT8 2-533 partner limits assumed): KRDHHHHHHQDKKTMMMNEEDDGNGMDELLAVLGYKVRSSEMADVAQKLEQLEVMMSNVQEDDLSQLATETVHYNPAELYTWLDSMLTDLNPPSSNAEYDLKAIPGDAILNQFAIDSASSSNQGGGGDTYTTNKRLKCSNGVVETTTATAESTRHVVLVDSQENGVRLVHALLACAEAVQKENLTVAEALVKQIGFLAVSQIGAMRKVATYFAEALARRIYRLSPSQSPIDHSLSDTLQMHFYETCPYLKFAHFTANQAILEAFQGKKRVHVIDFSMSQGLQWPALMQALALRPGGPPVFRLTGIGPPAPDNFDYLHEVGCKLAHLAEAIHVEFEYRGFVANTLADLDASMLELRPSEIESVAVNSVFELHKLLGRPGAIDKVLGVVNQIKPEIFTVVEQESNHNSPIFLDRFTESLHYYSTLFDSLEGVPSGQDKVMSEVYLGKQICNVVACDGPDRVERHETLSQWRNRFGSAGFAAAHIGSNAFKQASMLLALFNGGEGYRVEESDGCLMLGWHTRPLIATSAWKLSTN
T2 sequence (Q940G6 with tags, fused parts or gaps): as the sequence (Q940G6 with tags, fused parts or gaps) above

Structure (SMILES) | biological activity in planta assay [1] | luciferase signal [2] | bioluminescence upon luciferase substrate application [3] | luciferase signal [4]
C=C1C[C@]23C[C@@]1(O)CC[C@H]2[C@@]12CC[C@H](O)[C@@](C)(C(=O)O1)[C@H]2[C@@H]3C(=O)O [GA1] | less activity |  |  | 
C=C1C[C@]23C[C@@]1(O)CC[C@H]2[C@@]12C=C[C@H](O)[C@@](C)(C(=O)O1)[C@H]2[C@@H]3C(=O)O [GA3, gibberellic acid] |  | clearly higher | showed bioluminescence | 
C=C1C[C@]23C[C@H]1CC[C@H]2[C@@]12CC[C@H](O)[C@@](C)(C(=O)O1)[C@H]2[C@@H]3C(=O)OC [GA4-methylester, GA4-methyl ester] | barely active |  |  | triggered luciferase signal
C=C1C[C@]23C[C@H]1CC[C@H]2[C@@]12CC[C@H](O)[C@@](C)(C(=O)O1)[C@H]2[C@@H]3C(=O)O [GA4] | most biologically active |  |  | 
